Measurements: article PMC9986244, “Connection between MHC class II binding and aggregation propensity: The antigenic peptide 10 of Paracoccidioides brasiliensis as a benchmark study” (Computational and Structural Biotechnology Journal, 2023)
Read-outs that look alike come from different tables or passages of the source.

Biological target: MHC-II allele DRB1*01:01 (Homo sapiens, UniProt P01903+P01911, A100R/D57E/F55L/F60I/F76Y/I96L/L162R/M171V/P40L/Q125E/R42F/V115G/Y59C)
Format: binding
[1] = DRB1*01:01, SF-high / SF-low assigned from REVEAL scores

Row | Sequence | Affinity for MHC-II (subfamily by experimental affinity scores) | Affinity for MHC-II (subfamily by experimental affinity scores) [1]
1 | QTLIAIHTLAIRYAN [Peptide P10] | high affinity | –
2 | QNHHAIHTLAIRYAN [Peptide V15] | – | low affinity
3 | QTLTAIHTLAIRYAN [Peptide V6] | – | high affinity
4 | QTLQAIHTLAIRLAN [Peptide V11] | – | high affinity
5 | QPFPDIHTLAIRYAN [Peptide V3] | – | low affinity
6 | QGLKAIHTLAIRYAN [Peptide V10] | – | high affinity
7 | QPFQDIHTLAIRYAN [Peptide V5] | – | low affinity
8 | QMLHAIHTLAIRYAN [Peptide V16] | – | high affinity
9 | QGLPAIHTLAIRYAN [Peptide V7] | – | low affinity
10 | QTYHAIHTLAIRYAN [Peptide V14] | – | high affinity
11 | QTLLDIHTLAIRYAN [Peptide V1] | – | low affinity
